Data on nine compounds can be found in ChEMBL document CHEMBL4602670, “Palhinosides A-H: Flavone Glucosidic Truxinate Esters with Neuroprotective Activities from Palhinhaea cernua” (J Nat Prod, 2020).

Calls of active or inactive are those of the source. The rule behind the calls is not given here.

For one assay, the system named is HT-22. The experiment in a line: Neuroprotective activity against glutamate-induced cell damage in mouse HT22 assessed as increase cell viability at 1.3 to 15 uM after 24 hrs by luminescent cell viability assay. The assay is classed as functional, cell-based.
With `COC(=O)[C@H]1[C@@H](C(=O)OC[C@H]2O[C@@H](Oc3cc(O)c4c(=O)cc(-c5ccc(O)cc5)oc4c3)[C@H](O)[C@@H](O)[C@@H]2O)[C@H](c2ccc(O)cc2)[C@@H]1c1ccc(O)cc1`, the outcome was Active.

Take `COC(=O)[C@H]1[C@@H](C(=O)OC[C@H]2O[C@@H](Oc3cc(O)c4c(=O)cc(-c5ccc(O[C@@H]6O[C@H](CO)[C@@H](O)[C@H](O)[C@H]6O)cc5)oc4c3)[C@H](O)[C@@H](O)[C@@H]2O)[C@H](c2ccc(O)cc2)[C@@H]1c1ccc(O)cc1`: the result was Active.

As for `COC(=O)[C@H]1[C@H](C(=O)OC[C@H]2O[C@@H](Oc3cc(O)c4c(=O)cc(-c5ccc(O[C@@H]6O[C@H](CO)[C@@H](O)[C@H](O)[C@H]6O)cc5)oc4c3)[C@H](O)[C@@H](O)[C@@H]2O)[C@H](c2ccc(O)cc2)[C@H]1c1ccc(O)cc1`, the outcome was Active.

`Cc1c(C)c2c(c(C)c1O)CCC(C)(C(=O)O)O2` (stereo not given): the result was Active.

Turning to `COC(=O)[C@H]1[C@H](C(=O)OC[C@H]2O[C@@H](Oc3cc(O)c4c(=O)cc(-c5ccc(O)cc5)oc4c3)[C@H](O)[C@@H](O)[C@@H]2O)[C@H](c2ccc(O)cc2)[C@H]1c1ccc(O)cc1`, the result was Active.

The test system of another assay is HT-22. The experiment in a line: Neuroprotective activity in mouse HT22 assessed as decrease in glutamate-induced ROS generation preincubated for 8 hrs followed by addition of 2,7-dichlorofluorescein diacetate and measured after 30 mins by fluorescence based assay. The format is functional, cell-based.
On to `COC(=O)[C@H]1[C@@H](C(=O)OC[C@H]2O[C@@H](Oc3cc(O)c4c(=O)cc(-c5ccc(O)cc5)oc4c3)[C@H](O)[C@@H](O)[C@@H]2O)[C@H](c2ccc(O)cc2)[C@@H]1c1ccc(O)cc1`, for which the Activity result is “Dose-dependent effect”.

For the next assay, the system named is HT-22. As to the kind of experiment: Neuroprotective activity against glutamate-induced cell damage in mouse HT22 assessed as increase cell viability at 0.6 to 15 uM after 24 hrs by luminescent cell viability assay. The format is functional, cell-based.
In the case of `O=C(OC[C@H]1O[C@@H](Oc2cc(O)c3c(=O)cc(-c4ccc(O)cc4)oc3c2)[C@H](O)[C@@H](O)[C@@H]1O)[C@H]1[C@H](C(=O)OC[C@H]2O[C@@H](Oc3cc(O)c4c(=O)cc(-c5ccc(O[C@H]6O[C@@H](CO)[C@H](O)[C@@H](O)[C@@H]6O)cc5)oc4c3)[C@H](O)[C@@H](O)[C@@H]2O)[C@H](c2ccc(O)cc2)[C@H]1c1ccc(O)cc1`, the result was inactive.

`O=C(OC[C@H]1O[C@@H](Oc2cc(O)c3c(=O)cc(-c4ccc(O[C@H]5O[C@@H](CO)[C@H](O)[C@@H](O)[C@@H]5O)cc4)oc3c2)[C@H](O)[C@@H](O)[C@@H]1O)[C@@H]1[C@H](C(=O)OC[C@H]2O[C@@H](Oc3cc(O)c4c(=O)cc(-c5ccc(O)cc5)oc4c3)[C@H](O)[C@@H](O)[C@@H]2O)[C@@H](c2ccc(O)cc2)[C@H]1c1ccc(O)cc1`: the outcome was inactive.

Take `O=C(OC[C@H]1O[C@@H](Oc2cc(O)c3c(=O)cc(-c4ccc(O)cc4)oc3c2)[C@H](O)[C@@H](O)[C@@H]1O)[C@@H]1[C@H](C(=O)OC[C@H]2O[C@@H](Oc3cc(O)c4c(=O)cc(-c5ccc(O)cc5)oc4c3)[C@H](O)[C@@H](O)[C@@H]2O)[C@@H](c2ccc(O)cc2)[C@H]1c1ccc(O)cc1`: the result was inactive.

Turning to `O=C(OC[C@H]1O[C@@H](Oc2cc(O)c3c(=O)cc(-c4ccc(O[C@H]5O[C@@H](CO)[C@H](O)[C@@H](O)[C@@H]5O)cc4)oc3c2)[C@H](O)[C@@H](O)[C@@H]1O)[C@H]1[C@H](C(=O)OC[C@H]2O[C@@H](Oc3cc(O)c4c(=O)cc(-c5ccc(O[C@H]6O[C@@H](CO)[C@H](O)[C@@H](O)[C@@H]6O)cc5)oc4c3)[C@H](O)[C@@H](O)[C@@H]2O)[C@H](c2ccc(O)cc2)[C@H]1c1ccc(O)cc1`, the result was inactive.
